The values that follow come from ChEMBL document CHEMBL3860057, “Design and Synthesis of Potent Quinazolines as Selective β-Glucocerebrosidase Modulators” (J Med Chem, 2016).

Experiment [1] concerns the target T1, Lysosomal acid glucosylceramidase (Homo sapiens, UniProt P04062).
T1 sequence (P04062 whole entry): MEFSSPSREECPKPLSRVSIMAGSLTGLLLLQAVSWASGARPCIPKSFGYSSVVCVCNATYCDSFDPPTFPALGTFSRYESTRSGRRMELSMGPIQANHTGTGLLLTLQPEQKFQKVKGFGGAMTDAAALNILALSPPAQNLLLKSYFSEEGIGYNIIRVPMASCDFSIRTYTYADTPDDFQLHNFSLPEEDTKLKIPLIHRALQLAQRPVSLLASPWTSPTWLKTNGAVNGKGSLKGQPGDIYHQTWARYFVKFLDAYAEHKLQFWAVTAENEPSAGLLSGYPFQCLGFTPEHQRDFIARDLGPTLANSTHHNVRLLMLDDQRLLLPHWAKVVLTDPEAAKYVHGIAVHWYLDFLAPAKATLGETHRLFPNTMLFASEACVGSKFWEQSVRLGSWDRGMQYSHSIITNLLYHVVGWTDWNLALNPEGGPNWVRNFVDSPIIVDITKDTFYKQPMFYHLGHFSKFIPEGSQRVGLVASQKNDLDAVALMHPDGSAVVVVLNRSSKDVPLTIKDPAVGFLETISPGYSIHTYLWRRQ
Briefly: Inhibition of synthetic recombinant wild type GCase enzyme velaglucerase alfa (unknown origin) at pH 5.9 preincubated for 5 mins followed by addition of 4-Methylumbelliferyl beta-D-glucopyranoside as substrate measured after 30 mins by fluorescence analysis.

Experiment [2] deals with T2, Lysosomal acid glucosylceramidase (Homo sapiens) (UniProt P04062).
T2 sequence (whole entry): T1 sequence (P04062 whole entry)
Description: Binding affinity to synthetic recombinant wild type GCase enzyme velaglucerase alfa (unknown origin) assessed as thermal stabilization by measuring change in melting temperature at lower concentration at pH 5 for every 10 secs by Sypro Orange-dye based fluorescence thermal shift assay

As a reminder, the IC50 is the concentration at which inhibition is half-maximal. In general, ΔTm refers to the shift of the melting midpoint relative to a reference.

On to `C[C@H]1CC[C@H](Nc2nc(-c3cccnc3)nc3ccccc23)CC1`, for which the half-maximal inhibitory concentration (IC50) in experiment [1] came out at 20 nM. Take `c1ccc2c(c1)CC(Nc1nc(-c3ccsc3)nc3ccccc13)C2`: the thermal shift (ΔTm) in experiment [2] is 11 °C.
